Measured values as given in patent US20070213359A1 (ACADIA Pharmaceuticals Inc., priority 2005, published 2007).
Like-named read-outs stand apart in the source and are kept apart here.

Columns and labels:
GHSR1a receptor = target: T1, GHSR1a receptor (Homo sapiens, UniProt Q92847); assay: 125I-Ghrelin binding assay; conditions: displacement of 125I-ghrelin (0.053 nM), membranes of HEK293 cells transfected with GHSR1a; Cheng-Prussoff; '—' not defined; read-out: Binding pKi (converted)
T1 construct: expressed in transfected cells; host or cells: HEK293 (membranes)
T1 sequence (Q92847 whole entry): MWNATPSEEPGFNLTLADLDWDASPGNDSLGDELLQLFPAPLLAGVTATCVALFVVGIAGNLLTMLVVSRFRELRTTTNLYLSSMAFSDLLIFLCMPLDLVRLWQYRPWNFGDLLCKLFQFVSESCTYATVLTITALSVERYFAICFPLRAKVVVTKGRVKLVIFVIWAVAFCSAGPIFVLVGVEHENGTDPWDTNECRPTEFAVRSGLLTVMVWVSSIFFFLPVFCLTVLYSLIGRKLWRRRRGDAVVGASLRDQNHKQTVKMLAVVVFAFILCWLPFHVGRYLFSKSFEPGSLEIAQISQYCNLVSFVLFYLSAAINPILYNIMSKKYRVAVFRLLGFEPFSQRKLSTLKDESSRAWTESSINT

Ghrelin receptor = Ghrelin receptor (Homo sapiens, UniProt Q92847); assay: Receptor Selection and Amplification Technology (R-SAT) assay; format: cell-based; design: expressed in transfected cells; host or cells: NIH3T3; conditions: for IC50: '—' not defined (nd used separately), read-out: RSAT pIC50 (converted); for Emax: read-out: RSAT Eff(%)
Sequence of Ghrelin receptor (Q92847 whole entry): as above

[1] = negative logarithm of ligand concentration causing 50% inhibition of constitutive receptor response, transfected NIH3T3 cells
[2] = percent inhibition at saturating ligand, normalized to reference ligand Substance P analog = 100%

Structure (SMILES)	Ki (GHSR1a receptor)	IC50 (Ghrelin receptor; [1])	Emax (Ghrelin receptor; [2])	RSAT Eff(%) (Ghrelin receptor; [2])	Emax (Ghrelin receptor)	IC50 (Ghrelin receptor; […])
CC(=O)c1cn(CCCN2C3CCC2CC(CC(=O)c2ccccc2)C3)c2c(C)cccc12 (stereo not drawn)	200 nM	0.794 nM	91%			
CCCCC[C@H]1C[C@H]2CC[C@@H](C1)N2CCCn1cc(C(C)=O)c2cccc(Br)c21	158 nM	1.26 nM	81%			
COc1cccc2c(C(C)=O)cn(CCCN3CCCN(Cc4ccc(F)cc4)CC3)c12	15.8 nM	1.26 nM		130%		
CCc1cccc2c(C(C)=O)cn(CCCN3CCC(Oc4cccc(Cl)c4)CC3)c12	31.6 nM	1.58 nM	118%			
COc1cccc2c(C(=O)NCC(C)C)cn(CCCN3CCC(Oc4ccc(F)cc4)CC3)c12	126 nM	1.58 nM			90%	
COc1cccc2c(C(=O)C3CC3)cn(CCCN3CCC(Oc4cccc(Cl)c4)CC3)c12	20 nM	1.58 nM			102%	
CCCCC[C@H]1C[C@H]2CC[C@@H](C1)N2CCCn1cc(C(C)=O)c2cccc(OC)c21	316 nM	2 nM		113%		
COc1cccc2c(C#N)cn(CCCN3C4CCC3CC(CCc3ccccc3)C4)c12 (stereo not drawn)	25.1 nM	2 nM			104%	
COc1cccc2c(C(C)=O)cn(CCCN3CCN(c4ncc(C(F)(F)F)cc4Cl)CC3)c12	398 nM	2.51 nM		103%		
COc1cccc2c(C#N)cn(CCCN3CCCN(Cc4ccccc4Cl)CC3)c12	12.6 nM	2.51 nM	137%			
CC(=O)c1cn(CCCN2CCC(C(=O)c3ccccc3)CC2)c2c(C)cccc12	100 nM	3.16 nM	96%			
CC(=O)c1cn(CCCN2CCCN(Cc3ccccc3Cl)CC2)c2ncccc12	25.1 nM	3.16 nM	115%			
COc1cccc2c(C(=O)Cc3ccccc3)cn(CCCN3CCN(Oc4cccc(Cl)c4)CC3)c12	15.8 nM				88%	3.16 nM
COc1cccc2c(C(=O)Cc3ccccc3)cn(CCCN3C4CCC3CC(Oc3ccc(F)cc3)C4)c12 (stereo not drawn)	251 nM				99%	3.98 nM
COc1cccc2c(C(=O)c3ccccc3)cn(CCCN3CCCN(Cc4ccc(F)cc4)CC3)c12	10 nM				96%	3.98 nM
COc1cccc2c(C(=O)NCC(C)C)cn(CCCN3CCC(Oc4ccc(Cl)cc4)CC3)c12	50.1 nM	3.98 nM			146%	
CC(=O)c1cn(CCCN2C3CCC2CC(Oc2ccc(F)cc2)C3)c2ncccc12 (stereo not drawn)	501 nM	15.8 nM	77%			
CCCCC1CCN(CCCn2cc(C(C)=O)c3cccc(Br)c32)CC1	158 nM	20 nM	87%			
COc1cccc2c(C(C)=O)cn(CCCN3CCN(Oc4ccccc4Cl)CC3)c12	316 nM	20 nM	100%			
CC(=O)c1cn(CCCN2C3CCC2CC(Oc2ccccc2Cl)C3)c2c(C#N)cccc12 (stereo not drawn)	200 nM	20 nM	83%			
CC(=O)c1cn(CCCN2CCC(Oc3ccccc3Cl)CC2)c2c(C)cccc12	631 nM	20 nM	110%			

Structure (SMILES)	Ki (GHSR1a receptor)	IC50 (Ghrelin receptor; [1])	Emax (Ghrelin receptor; [2])	RSAT Eff(%) (Ghrelin receptor; [2])	Emax (Ghrelin receptor)	IC50 (Ghrelin receptor; […])
CC(=O)c1cn(CCCN2CCC(Oc3cccc(Cl)c3)CC2)c2c(Cl)cccc12	100 nM	20 nM	83%			
CCCCC1CCN(CCCn2cc(C(C)=O)c3cccc(OC)c32)CC1	1580 nM	20 nM	116%			
CCc1cccc2c(C(C)=O)cn(CCCN3C4CCC3CC(CCc3ccc(Cl)cc3)C4)c12 (stereo not drawn)	100 nM	20 nM			95%	
COc1cccc2c(C(=O)c3ccccc3)cn(CCCNCCOc3ccccc3)c12	158 nM				74%	20 nM
CC(=O)c1cn(CCCN2C3CCC2CC(Oc2ccccc2Cl)C3)c2ncccc12 (stereo not drawn)	31.6 nM	20 nM	108%			
COc1cccc2c(C(=O)c3ccccc3)cn(CCCN3CCC(Oc4ccc(F)cc4)CC3)c12	1260 nM				107%	25.1 nM
COc1ccccc1C1CCN(CCCn2cc(C(=O)NCC(C)C)c3cccc(OC)c32)CC1	126 nM	25.1 nM			108%	
COc1cccc2c(C(C)=O)cn(CCCN3CCN(c4ccccc4Cl)CC3)c12	2510 nM	25.1 nM	108%			
COc1cccc2c(C(C)=O)cn(CCCN3CCN(c4ccc(C(F)(F)F)cc4)CC3)c12	251 nM	25.1 nM	92%			
COc1cccc2c(C(=O)Cc3ccccc3)cn(CCCN3CCCC(Cc4ccccc4Cl)C3)c12 (stereo not drawn)	126 nM				116%	25.1 nM
Cc1cccc(CNC(=O)n2cc(CCCN3C4CCC3CC(CCc3ccccc3)C4)c3ccccc32)c1 (stereo not drawn)	158 nM	31.6 nM	114%			
O=C(c1cn(CCCN2C3CCC2CC(CCc2ccccc2)C3)c2ncccc12)C(F)(F)F (stereo not drawn)	200 nM	31.6 nM	104%			
COc1cccc2c(C(C)=O)cn(CCCN3CCC(Cc4ccccc4)CC3)c12	794 nM	31.6 nM	116%			
O=C(c1cn(CCCN2CCCN(Cc3ccccc3Cl)CC2)c2ncccc12)C(F)(F)F	50.1 nM	31.6 nM	85%			
COc1ccccc1C1CCN(CCCn2cc(C(C)=O)c3cccc(OC)c32)CC1	631 nM	39.8 nM		109%		
CC(=O)c1cn(CCCN2CCC(Oc3ccc(F)cc3)CC2)c2c(Cl)cccc12	2000 nM	39.8 nM	120%			
COc1cccc2c(C(C)=O)cn(CCCN3CCC(C(=O)c4ccccc4)CC3)c12	2000 nM	39.8 nM		98%		
COc1cccc2c(C(C)=O)cn(CCCN3CCN(c4ccc(C(F)(F)F)cc4[N+](=O)[O-])CC3)c12	631 nM	39.8 nM	94%			
COc1cccc2c(C#N)cn(CCCN3C4CCC3CC(CCc3ccc(Cl)cc3)C4)c12 (stereo not drawn)	251 nM	39.8 nM	77%			
CC(=O)c1cn(CCCN2CCC(Oc3ccc(Cl)cc3)CC2)c2c(C)cccc12	2000 nM	39.8 nM	101%			
COc1cccc2c(C(C)=O)cn(CC(C)CN3CCC(Oc4cccc(Cl)c4)CC3)c12 (stereo not drawn)	794 nM	39.8 nM	102%			

Structure (SMILES)	Ki (GHSR1a receptor)	IC50 (Ghrelin receptor; [1])	Emax (Ghrelin receptor; [2])	RSAT Eff(%) (Ghrelin receptor; [2])	Emax (Ghrelin receptor)	IC50 (Ghrelin receptor; […])
COc1ccccc1C1CCN(CCCn2cc(C(C)=O)c3cccc(C)c32)CC1	1260 nM	39.8 nM	116%			
CC(=O)c1cn(CCCN2C3CCC2CC(Oc2ccc(F)cc2)C3)c2c(C#N)cccc12 (stereo not drawn)	100 nM	50.1 nM	93%			
COc1cccc2c(C(=O)NCc3cccc(Cl)c3)cn(CCCN3C4CCC3CC(Oc3ccc(Cl)cc3)C4)c12 (stereo not drawn)	251 nM	50.1 nM		97%		
COc1ccc(C(=O)OC2C[C@H]3CC[C@@H](C2)N3CCCn2cc(C(C)=O)c3cccc(OC)c32)cc1OC (stereo partly drawn)	1000 nM	50.1 nM			104%	
COc1ccccc1C1CCN(CCCn2cc(C(C)=O)c3cccc(Br)c32)CC1	316 nM	50.1 nM	109%			
CC(=O)c1cn(CCCN2C3CCC2CC(Oc2ccc(Cl)cc2)C3)c2c(Cl)cccc12 (stereo not drawn)	1000 nM	50.1 nM	104%			
CC(=O)c1cn(CCCN2C3CCC2CC(CCc2ccc(Cl)cc2)C3)c2ncccc12 (stereo not drawn)	398 nM	79.4 nM	87%			
CC(=O)c1cn(CCCN2CCC(C(=O)c3ccccc3)CC2)c2c(Br)cccc12	1580 nM	79.4 nM	84%			
COc1cccc2c(C#N)cn(CCCN3C4CCC3CC(Oc3ccccc3Cl)C4)c12 (stereo not drawn)	631 nM	100 nM	114%			
CC(C)CC(=O)c1cn(CCCN2CCC(Oc3ccc(F)cc3)CC2)c2ccccc12	1000 nM				93%	100 nM
CCc1cccc2c(C(C)=O)cn(CCCNCCOc3ccccc3)c12	12.6 nM	100 nM	106%			
CCCCC(=O)c1cn(CCCN2CCC(Oc3ccc(Cl)cc3)CC2)c2ccc(OC)cc12	251 nM	126 nM			111%	
CC(=O)c1cn(CCCN2CCC(Oc3ccc(Cl)cc3)CC2)c2ccccc12	2510 nM	126 nM	104%			
CCCCCC=C1CCN(CCCn2cc(C(C)=O)c3ccccc32)CC1	200 nM	200 nM	139%			
CCCCCCC1CCN(CCCn2cc(C(C)=O)c3ccccc32)CC1	6310 nM	200 nM	94%			
CC(=O)c1cn(CCCN2CCC(CCC(C)C)CC2)c2ccccc12	3980 nM	398 nM	73%			
CC(=O)c1c(C)n(CCCN2C3CCC2CC(CC(=O)c2ccc(Cl)cc2)C3)c2c(Br)cccc12 (stereo not drawn)	63.1 nM	631 nM	64%			
CC(=O)c1cn(CCCN2C3CCC2CC(OCC2CC2)C3)c2ccccc12 (stereo not drawn)	15800 nM	1260 nM	89%			
COc1cccc2c(C#N)cn(CCCN3CCC(Oc4cccc(Cl)c4)CC3)c12	39.8 nM	1260 nM	162%			
COc1ccc2c(c1)C1CCN(CCCn3cc(C(C)=O)c4ccccc43)CC1C2 (stereo not drawn)	5010 nM	1260 nM	110%			
COC(=O)c1cn(CCCN2CCC(Oc3ccc(F)cc3)CC2)c2ccccc12	3160 nM	2000 nM	87%			
